Experimental data reported in US8778385B1, “Medicated animal food composition” (I Care for Dogs Corp., priority 2005, dated 2014).
“Also recorded” adds a separate entry of the source.

Assays:
canines = details: cited from earlier work
tear staining = assay: controlling tear staining in Maltese dogs; format: in vivo
Description: In preparation of the medicated animal food composition, all of the ingredients (except for the tylosin) are initially processed into a powder and then mixed together with the tylosin, as a tartrate. Tylosin is available from the Omaha Vaccine Co. under the brand name TYLAN and is a veterinary antibiotic that is FDA-approved for fowl (chickens/turkeys) and swine (pigs). Tylosin is used primarily to treat respiratory disease caused by Mycoplasma gallisepticum.

SMILES	side effects when used to treat excessive tearing (canines)	effect in controlling tear staining (tear staining)
CN(C)[C@@H]1C(O)=C(C(N)=O)C(=O)[C@@]2(O)C(O)=C3C(=O)c4c(O)cccc4[C@@](C)(O)[C@H]3C[C@@H]12 [Tetracycline]	upset stomach; also recorded: staining of the teeth	–
CC[C@H]1OC(=O)C[C@@H](O)[C@H](C)[C@@H](O[C@@H]2O[C@H](C)[C@@H](O[C@H]3C[C@@](C)(O)[C@@H](O)[C@H](C)O3)[C@H](N(C)C)[C@H]2O)[C@@H](CC=O)C[C@@H](C)C(=O)/C=C/C(C)=C/[C@@H]1CO[C@@H]1O[C@H](C)[C@@H](O)[C@@H](OC)[C@H]1OC [Tylosin]	–	some beneficial effect
